Like-named read-outs stand apart in the source and are kept apart here.
Key:
[1] = test system: writhing induced by phenylquinone; assay: Phenylquinone writhing test (analgesic activity); assay type: in vivo, female white mice; conditions: read-out: Phenylquinone Writhing ED50
Experimental: PHENYLQUINONE WRITHING TEST
A test compound suspended in 1% methylcellulose was given orally to fasted (17-21 hours) female white mice, 5-20 animals per double blind test. Aqueous (0.01% phenyl-p-benzoquinone)phenylquinone, 0.20 ml per mouse, was injected intraperitoneally 6 minutes before observations were begun.

[2] = test system: adjuvant-induced arthritis; assay: Established adjuvant-induced arthritis in rats (paw volume); assay type: in vivo, Charles River Lewis male rats; conditions: for ED50: read-out: Adjuvant Arthritic ED50; for Paw volume reduction at indicated daily dose (Adjuvant Arthritic): oral, daily dose 9 (mg/kg), 7 days, printed in the ED50 column, footnote 1
[3] = mouse, oral, fasted 17-21 hours, effective analgesic dose for 50% of the mice
[4] = rat, oral gavage daily for 7 days, ED50% decrease from control paw volume, uninjected left hind paw, one day after last dose

SMILES	ED50 [1, 3] [mg/kg]	ED50 [2, 4] [mg/kg]	ED50 ([1]; Mus musculus, po) [mg/kg]	ED50 ([2]; Rattus norvegicus, po) [mg/kg]	Paw volume reduction at indicated daily dose (Adjuvant Arthritic) ([2]; rat) [%]
CCSc1nc2c([nH]1)C(c1ccccc1)c1ccccc1-2 (stereo not drawn) [Example 11]	14	14			
COc1ccc(C2c3ccccc3-c3nc(SC(F)(F)F)[nH]c32)cc1 (stereo not drawn) [Example 13]	0.147	3.2			
CS(=O)(=O)c1nc2c([nH]1)C(c1ccccc1)c1ccccc1-2 (stereo not drawn) [Example 7, 1,8-Dihydro(or 3,8-dihydro)-2-(methylsulfonyl)-8-phenyl-indeno[1,2]-dimidazole]	14	19			
FC(F)C(F)(F)Sc1nc2c([nH]1)C(c1ccccc1)c1ccccc1-2 (stereo not drawn) [Example 1, 1,8-Dihydro(or 3,8-dihydro)-2-[(1,1,2,2-tetrafluoroethyl)thio]-8-phenyl-indeno[1,2-d]imidazole]	0.16	0.79			
CC(=O)Oc1ccccc1C(=O)O [Aspirin, reference compound]			135	305	
FC(F)(F)Sc1nc2c([nH]1)C(c1ccc(Cl)c(Cl)c1)c1ccccc1-2 (stereo not drawn) [Example 10]	1.3				44
Cc1ccc2c(c1)-c1nc(SC(F)(F)C(F)F)[nH]c1C2c1ccccc1 (stereo not drawn) [Example 15]	5	3.6			
Fc1ccc(C2c3ccccc3-c3nc(SC(F)(F)F)[nH]c32)cc1 (stereo not drawn) [Example 17]	0.14	2.4			
[O-][S+](c1nc2c([nH]1)C(c1ccccc1)c1ccccc1-2)C(F)(F)F (stereo not drawn) [Example 5, 1,8-Dihydro(or 3,8-dihydro)-2-[(trifluoromethyl)sulfinyl]-8-phenyl-indeno[1,2-d]imidazole]	0.057	0.62			
CSc1nc2c([nH]1)C(c1ccccc1)c1ccccc1-2 (stereo not drawn) [Example 6, 1,8-Dihydro(or 3,8-dihydro)-2-(methylthio)-8-phenyl-indeno[1,2-d]imidazole]	27	50			
FC(F)(F)Sc1nc2c([nH]1)C(c1ccccc1)c1ccccc1-2 (stereo not drawn) [Example 3, 1,8-Dihydro(or 3,8-dihydro)-2-[(trifluoromethyl)thio]-8-phenyl-indeno[1,2-d]imidazole]	0.26	1.1			
CCCCSc1nc2c([nH]1)C(c1ccccc1)c1ccccc1-2 (stereo not drawn) [Example 12]	65	> 27			
O=S(=O)(c1nc2c([nH]1)C(c1ccccc1)c1ccccc1-2)C(F)(F)C(F)F (stereo not drawn) [Example 2, 1,8-Dihydro(or 3,8-dihydro)-2-[(1,1,2,2-tetrafluoroethyl)sulfonyl]-8-phenyl-indeno[1,2-d]imidazole]	0.04	0.2			
COc1cccc2c1-c1nc(SC(F)(F)F)[nH]c1C2c1ccccc1 (stereo not drawn) [Example 9]	8.3	> 9			
Cc1ccc2c(c1)-c1nc(S(=O)(=O)C(F)(F)C(F)F)[nH]c1C2c1ccccc1 (stereo not drawn) [Example 16]	0.064				39
CC(C)Cc1ccc(C(C)C(=O)O)cc1 (stereo not drawn) [Ibuprofen, reference compound]	10	100			
O=S(=O)(c1nc2c([nH]1)C(c1ccccc1)c1ccccc1-2)C(F)(F)F (stereo not drawn) [Example 4, 1,8-Dihydro(or 3,8-dihydro)-2-[(trifluoromethyl)sulfonyl]-8-phenyl-indeno[1,2-d]imidazole]	0.04	1.35			
COc1ccc2c(c1)C(c1ccccc1)c1[nH]c(SC(F)(F)F)nc1-2 (stereo not drawn) [Example 8]	2.4	10.5			
COc1ccc2c(c1)c(CC(=O)O)c(C)n2C(=O)c1ccc(Cl)cc1 [Indomethacin, reference compound]			0.35	0.3	
CCCCC1C(=O)N(c2ccccc2)N(c2ccccc2)C1=O [Phenylbutazone, phenylbutazone, reference compound]	80	10			
COc1ccc(C2c3ccccc3-c3nc(S(=O)(=O)C(F)(F)F)[nH]c32)cc1 (stereo not drawn) [Example 14]	0.2	0.5			

— patent US4548946A, “Antiinflammatory and/or analgesic 1,8-Dihydro-(or 3,8-dihydro)-8-aryl-2-[(substituted)thio]-indeno[1,2-d]imidazoles and their corresponding sulfoxides and sulfones” (E. I. Du Pont de Nemours and Company, priority 1982, dated 1985)
